As to `O=S(=O)(O)CS(=O)(=O)O`, the melting point came to 98 °C.

As to `Cc1ccc(C(=O)CCCCl)cc1`, the melting point worked out at 31.5 °C. On to `CC[C@H](C)[C@H](NC(=O)OCc1ccccc1)C(=O)O`, for which the melting point lay in the range of 52 to 54 °C. `Brc1ccc(Oc2c(Br)cc(Br)cc2Br)c(Br)c1` yielded a melting point of 97 to 98 °C. As to `O=C(O)C(=O)c1cccs1`, the melting point fell in the range of 89 to 95 °C. On to `C=C(C)CN(CC)c1c([N+](=O)[O-])cc(C(F)(F)F)cc1[N+](=O)[O-]`, for which the melting point was found to be 55.5 °C.

Compound `CCOC(=O)c1c(=S)ncn2c1[nH]c1ccccc12` displayed a melting point of 194 to 198 °C. On to `O=C(O)c1cccc2c1-c1ccc(I)cc1C2`, for which the melting point lay in the range of 265 to 267 °C. `Cc1c(Br)cc(N)cc1Br` yielded a melting point of 91 °C. `CC12CCC(C(=O)OC1=O)C2(C)C` (stereo not given) returned a melting point of 221 °C. `O=C1/C(=N/Nc2ccncc2)C(C(F)(F)F)=NN1c1ccccc1` showed a melting point of 177 °C. Turning to `COc1ccc(-c2nnc3n2NC(c2ccc(OC)cc2)S3)cc1` (stereo not given), the melting point came to 152 °C.

In the case of `COc1cc(C(N)=O)cc(OC)c1OC`, the melting point came to 179 °C. Then `Cc1ccc2sc(C(=O)O)cc2c1`, with 222 to 223 °C. `NNC(=O)c1ccc[nH]1` displayed a melting point of 232 to 235 °C. The figure for `COc1ccccc1-c1nnc2n1NC(c1ccco1)S2` (stereo not given) is 226 °C; for `O=Cc1csc2ccc(Cl)cc12` it is 109 to 111 °C; for `CC(CCC(=O)O)C1CCC2C3C(=O)CC4CC(=O)CCC4(C)C3CC(=O)C12C` (stereo not given) it is 237 °C.

For `COc1cc(C2OCC3C(c4ccc(OC(C)=O)c(OC)c4)OCC23)ccc1OC(C)=O` (stereo not given), the melting point was 166 °C.

`CC(=O)CS(=O)(=O)c1ccc(C)cc1` had a melting point of 52 to 54 °C. Then `O=S1(=O)C=Cc2ccccc21`, with 138 to 142 °C; and `Cc1cccc2cccc(C)c12`, with 65 °C. In the case of `OCc1ccccc1N1CCOCC1`, the melting point lay in the range of 54 to 57 °C.

With `CCCCCCNC(=O)c1ccc(O)c(O)c1`, the melting point was found to be 140 °C.

In the case of `C/C(=N\c1ccc(O)c(C)c1)c1c(O)c2ccccc2n(-c2ccccc2)c1=O`, the melting point lay within 231 to 232 °C. The compound `Cn1c(=O)c(C2=NNC(=O)C2=Cc2ccccn2)c(O)c2ccccc21` displayed a melting point of 292 °C. As to `c1ccc2sncc2c1`, the melting point turned out to be 38 °C. Regarding `OCc1cc2cccnc2s1`, the melting point was in the range of 47 to 49 °C.

Turning to `CCOC(=O)Cc1nn(CC(N)=S)c(=O)c2ccccc12`, the melting point was in the range of 150 to 152 °C. Then `Cc1cc(C)c(C=O)[nH]1`, with 90 to 91 °C.

Take `CNC(C)=CC(=O)OC`: the melting point is 62 to 68 °C. Take `CCOC(=O)Nc1cccc(OC(=O)Nc2ccccc2)c1`: the melting point came to 120 °C. In turn, `COc1cc(C=C[N+](=O)[O-])ccc1OCc1ccccc1` showed a melting point of 123 °C. Then `O=C(O)c1cn(C2CC2)c2cc(Cl)c(F)cc2c1=O`, with 239 to 244 °C; and `CC(=O)OC1CC[C@H]2[C@@H]3CC[C@@H]4C(Br)C(=O)CC[C@]4(C)[C@H]3CC[C@]12C` (stereo not given in full), with 181 °C; and `O=C=Nc1ccc(CCl)cc1`, with 33 °C. With `FC(F)(F)C(I)(C(F)(F)F)C(F)(F)F`, the melting point was 60 °C. Turning to `CC(O[S+]([O-])C(C)(C)C)C(O)(c1ccccc1)c1ccccc1` (stereo not given), the melting point fell in the range of 135 to 137 °C.

The compound `NNc1ccc(I)cc1` showed a melting point of 101 to 102 °C.

Turning to `O=C(Nc1ccccc1)c1cc([N+](=O)[O-])cc(S(=O)(=O)Nc2ccccc2)c1`, the melting point stood at 188 °C. With `NS(=O)(=O)c1ccc(SCCCO)cc1`, the melting point turned out to be 117 °C. On to `O=C(NC1CCCCC1)c1ccccc1`, for which the melting point turned out to be 145 °C. `CCNc1cccc(O)c1` returned a melting point of 62 °C.

`COc1ccc(/C(C)=C/C(C)=O)cc1` showed a melting point of 52.5 to 53 °C. The figure for `CN(N)c1ccc(Cl)cc1[N+](=O)[O-]` is 91 °C; for `O=C(O)C1CSC(c2cccnc2)=N1` (stereo not given) it is 180 to 181 °C. `O=[N+]([O-])c1ccc(Br)c(Cl)c1` had a melting point of 61 °C.

As to `O=C1C(C(O)c2c(Cl)cccc2Cl)C(C(F)(F)F)=NN1c1ccccc1` (stereo not given), the melting point is 196 °C. The figure for `CCOC(=O)C(=O)C(C#N)C(=O)OCC` (stereo not given) is 88 to 90 °C; for `ON(c1ccccc1)C(Br)C(Br)c1ccccc1` (stereo not given) it is 125 °C.

`CNC(=C[N+](=O)[O-])OC` returned a melting point of 116 to 120 °C. As for `CNC(=S)N(C)C`, the melting point fell in the range of 126 to 127 °C. Compound `O=C(O)CN(CCO)CC(=O)O` returned a melting point of 178 °C. For `ON=C(C1CC1)C1CC1`, the melting point came out at 76.5 °C. `c1nnn[nH]1` came in with a melting point of 157 °C.

As to `CC(=O)N[C@@H](CC(C)C)C(=O)O`, the melting point was 178 °C.

`CC(CCC(=O)O)C1CCC2C3C(O)CC4CC(O)CCC4(C)C3CCC12C` (stereo not given) returned a melting point of 203 °C. Regarding `CCOC(=O)C(C#N)=C1SCCS1`, the melting point worked out at 106 °C. As to `OCC(O)COc1ccccc1` (stereo not given), the melting point came to 62.8 °C. On to `COc1ccc(C=C2SC(=S)N(CNc3ccc([N+](=O)[O-])cc3)C2=O)cc1`, for which the melting point came to 176 °C.

As to `Cc1n[nH]c2c(=O)n(C(C)C)c(C)nc12`, the melting point is 143 to 145 °C. Compound `O=C(CCl)N(c1ccccc1)C1CCCCC1` gave a melting point of 103 to 105 °C. The compound `COc1ccc(C#N)c2ccccc12` returned a melting point of 102 °C. As for `C/C(CC(C)c1ccc(C)cc1)=N\NC(N)=O` (stereo not given), the melting point is 146 °C. As for `N#Cc1cccc(Cl)c1`, the melting point was found to be 41 °C.

Compound `CCCCC(C(N)=O)n1nc2ccccc2n1` (stereo not given) showed a melting point of 102 °C. `CC(C)C[C@H](NC(=O)OCC1c2ccccc2-c2ccccc21)C(=O)O` displayed a melting point of 153 to 157 °C. `C#CCCCCCCCCCCC`: the melting point was -5 °C. The compound `BrCC(CBr)CBr` came in with a melting point of -32 °C. The figure for `CCCCCCC(O)C1C2=C(CC(C(O)C3CC=CC(=O)O3)CC3=C(C(=O)OC3=O)C1O)C(=O)OC2=O` (stereo not given) is 170 °C; for `Nc1ccc([N+](=O)[O-])c(Cl)c1` it is 159 °C.

Regarding `Cc1ccncc1C#N`, the melting point came to 43 °C. `CC(=O)OC1(C(C)=O)CCC2C3CC(C(F)(F)F)C4=CC(=O)CCC4(C)C3CCC21C` (stereo not given) had a melting point of 206 °C. `O=C(O)c1ccc(-c2nccs2)cc1`: the melting point fell in the range of 239 to 241 °C. Compound `O=[N+]([O-])c1ccc(Cl)c(CO)c1` had a melting point of 77 to 78 °C. Compound `O=C(O)c1coc2c1C(=O)CCC2` returned a melting point of 140 to 143 °C. For the compound `CCCCOc1ccc(NC(=O)C(C(F)(F)F)C(F)(F)F)cc1`, the melting point turned out to be 172 °C.

As to `O=C(CCCl)c1ccccc1`, the melting point is 48.5 °C. Then `O=C1C=CC(=O)N1Cc1ccccc1`, with 69 °C; and `COc1ccc(C=C(S)C(=O)O)cc1`, with 140 °C; and `C1CCCCCCCCCCCCCCC1`, with 61 °C. `CCCCc1cc2ccccc2c(OCCN(C)C)n1` displayed a melting point of 146 °C. The figure for `O=C(O)COc1cccc(OCC(=O)O)c1` is 194 °C; for `CC1(C(=O)O)CCC(CCc2ccccc2)C1(C)C` (stereo not given) it is 118 °C; for `c1ccc(C2=C(c3ccccc3)C(c3ccccc3)=C(c3ccccc3)C2)cc1` it is 179 to 182 °C. Then `CCCC(C)OC(C)=O` (stereo not given), with -100 °C; and `COc1ccc(C(C=O)C=O)cc1`, with 178 to 181 °C; and `COc1ccccc1C1(C)CCc2oc3ccccc3c2-c2oc(C)cc21` (stereo not given), with 158 °C. `OCC(F)(F)C(F)F` showed a melting point of -15 °C. With `COc1cc(N)ccc1[N+](=O)[O-]`, the melting point was found to be 127 °C. The compound `N#CCc1ccc(OCc2ccccc2)cc1` yielded a melting point of 68 °C. Turning to `CCCc1cccc(C)c1`, the melting point is -82.5 °C. Turning to `CC(C)C(NC(=O)C(C)(C)Br)C(C)C`, the melting point lay in the range of 80 to 82 °C. As to `CC(=C\OC(=O)c1ccccc1)/C(C)=N/OC(=O)c1ccccc1`, the melting point is 231 to 232 °C. In turn, `CCOC(=O)C1=C(C)OC(N)=C(C#N)C1c1ccccc1` (stereo not given) showed a melting point of 189 to 190 °C. `O=[N+]([O-])c1cccc(Cl)c1O`: the melting point was 70 °C.

`COc1cc(/C=N/c2ccccc2)ccc1O` gave a melting point of 140 °C. On to `CCCCCCCCCCCCCCCCCc1ccccc1`, for which the melting point worked out at 32 °C. Then `FC(F)(F)c1ccc(Cl)cc1Cl`, with -26 °C; and `O=C(O)c1ccc2c(c1)OC(F)(F)O2`, with 156 °C. Consider `COc1ccc(OC)c(C(=O)O)c1`, for which the melting point stood at 77 °C.

Regarding `Cc1cc2nsnc2cc1Cl`, the melting point lay in the range of 85 to 86 °C. `O=C(O)CCCCCC(=O)c1ccccc1` yielded a melting point of 85 °C. `O=Cc1cccc(CN2CCOCC2)c1` had a melting point of 63 to 64 °C.

In the case of `CC1=NN(c2ccccc2)C(=O)C1C(Br)C1(Br)C(=O)N(c2ccccc2)N=C1C` (stereo not given), the melting point is 307 to 308 °C. `O=C(O)c1ccc(Cl)nc1Cl`: the melting point turned out to be 148 °C. `O=S(O)c1ccccc1`: the melting point was determined as 84 °C. With `N[C@@H]1C=C[C@H](C(=O)O)C1`, the melting point worked out at 180 °C. The compound `Cc1ccc2cccc(C)c2n1` had a melting point of 27 °C. For `O=Cc1cc(F)cc2c1OCOC2`, the melting point fell in the range of 113 to 114 °C. The compound `COc1ccc(C=NNC(=O)c2ccncc2)cc1OC` came in with a melting point of 189 °C. As for `CN(C)c1cccc2cccc(N(C)C)c12`, the melting point stood at 49 °C. The compound `Nc1ncnc2c1ncn2CC(O)CO` (stereo not given) had a melting point of 202 to 203 °C. On to `NNC(=O)c1ccc(O)cc1O`, for which the melting point was found to be 241 °C. Consider `Cc1ccc(S(C)(=O)=O)cc1[N+](=O)[O-]`, for which the melting point worked out at 121 °C.
